Measurements from patent US20100298285A1, “Biclycloheteroaryl Compounds as P2x7 Modulators and Uses Thereof” (priority 2006, published 2010).

What follows are molecules tested on IL-1β release, THP-1 cells (assay: IL-1β release assay in differentiated THP-1 cells stimulated with BzATP (Example 9)). Details: Homo sapiens; 0.1 μM compound ("*" symbols); differentiated THP-1 cells, 250 uM BzATP; read-out: IL-1β% Inhib. @ 0.3 or 0.1 μM.
Format: cell-based
How it was run: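 THP-1 cells differentiated 16 h with 100 ng/mL LPS + 100 ng/mL IFN-γ, re-primed 2 h with fresh LPS 100 ng/mL, pretreated 30 min with compound, then stimulated with BzATP 250 uM final for 45 min. Supernatant IL-1β by ELISA; background-adjusted % inhibition, IC50 from four-parameter logistic fit.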

Structure (SMILES) | inhibition at 0.1 µM
N#Cc1cccc(S(=O)(=O)N2CCc3c(ccc(Cl)c3NC(=O)Cc3ccc(C(F)(F)F)cc3)C2)c1 [Compound 3028] | 0 to 25%
O=C(Cc1ccc(C(F)(F)F)cc1)Nc1c(Cl)ccc2c1CCN(S(=O)(=O)c1ccccc1OC(F)(F)F)C2 [Compound 3034] | 0 to 25%
O=C(Cc1ccc(C(F)(F)F)cc1)Nc1c(Cl)ccc2c1CCN(S(=O)(=O)c1ccc(F)c(F)c1)C2 [Compound 3005] | 0 to 25%
O=C(Cc1ccc(C(F)(F)F)cc1)Nc1c(Cl)ccc2c1CCN(S(=O)(=O)c1cc(F)cc(F)c1)C2 [Compound 3006] | 0 to 25%
O=C(Cc1ccc(C(F)(F)F)cc1)Nc1c(Cl)ccc2c1CCN(S(=O)(=O)c1ccc(C(F)(F)F)cc1)C2 [Compound 3033] | 0 to 25%

Same assay, conditions: Homo sapiens; 0.3 μM compound ("+" symbols); differentiated THP-1 cells, 250 uM BzATP; read-out: IL-1β% Inhib. @ 0.3 or 0.1 μM

Structure (SMILES) | inhibition at 0.3 µM
O=C(Cc1ccc(C(F)(F)F)c(F)c1)Nc1c(Cl)ccc2c1CCN(C(=O)c1ccc(F)cc1)C2 [Compound 3091] | 0 to 25%
O=C(Cc1ccc(C(F)(F)F)c(F)c1)Nc1c(Cl)ccc2c1CCN(C(=O)C1CCCC1)C2 [Compound 3080] | 51 to 75%
Cc1ccc(F)c(C(=O)N2CCc3c(ccc(Cl)c3NC(=O)Cc3cccc(C(F)(F)F)c3F)C2)c1Cl [Compound 3171] | 0 to 25%
O=C(Cc1ccc(C(F)(F)F)c(F)c1)Nc1c(Cl)ccc2c1CCN(C(=O)C1CCC1)C2 [Compound 3101] | 0 to 25%
O=C(Cc1cccc(C(F)(F)F)c1F)Nc1c(Cl)ccc2c1CCN(C(=O)c1ccc(F)cc1)C2 [Compound 3154] | 0 to 25%
CC(=O)N1CCC(C(=O)N2CCc3c(ccc(Cl)c3NC(=O)Cc3ccc(C(F)(F)F)c(F)c3)C2)CC1 [Compound 3122] | 0 to 25%
COc1ccc(C(=O)N2CCc3c(ccc(Cl)c3NC(=O)Cc3cccc(C(F)(F)F)c3F)C2)cc1OC [Compound 3193] | 0 to 25%
COCC(=O)N1CCc2c(ccc(Cl)c2NC(=O)Cc2cccc(C(F)(F)F)c2F)C1 [Compound 3145] | 51 to 75%
O=C(Cc1ccc(C(F)(F)F)c(F)c1)Nc1c(Cl)ccc2c1CCN(C(=O)C1CC1c1ccccc1)C2 (stereo not shown) [Compound 3099] | 0 to 25%
O=C(Cc1ccc(C(F)(F)F)c(F)c1)Nc1c(Cl)ccc2c1CCN(C(=O)CCC1CCCCC1)C2 [Compound 3130] | 51 to 75%
COc1cc(OC)cc(C(=O)N2CCc3c(ccc(Cl)c3NC(=O)Cc3cccc(C(F)(F)F)c3F)C2)c1 [Compound 3149] | 26 to 50%
O=C(Cc1ccc(C(F)(F)F)c(F)c1)Nc1c(Cl)ccc2c1CCN(C(=O)CCC1CCCC1)C2 [Compound 3075] | 0 to 25%
O=C(Cc1cccc(C(F)(F)F)c1F)Nc1c(Cl)ccc2c1CCN(C(=O)c1ccccc1F)C2 [Compound 3178] | 0 to 25%
O=C(Cc1ccc(C(F)(F)F)c(F)c1)Nc1c(Cl)ccc2c1CCN(C(=O)c1ccc3ccccc3n1)C2 [Compound 3125] | 26 to 50%
N#Cc1ccc(C(=O)N2CCc3c(ccc(Cl)c3NC(=O)Cc3cccc(C(F)(F)F)c3F)C2)cc1 [Compound 3161] | 0 to 25%
O=C(Cc1ccc(C(F)(F)F)c(F)c1)Nc1c(Cl)ccc2c1CCN(C(=O)c1cccc3ccccc13)C2 [Compound 3121] | 0 to 25%
O=C(Cc1ccc(C(F)(F)F)c(F)c1)Nc1c(Cl)ccc2c1CCN(C(=O)c1ccc(Oc3ccccc3)nc1)C2 [Compound 3133] | 0 to 25%
O=C(Cc1cccc(C(F)(F)F)c1F)Nc1c(Cl)ccc2c1CCN(C(=O)c1ccc(C(F)(F)F)nc1)C2 [Compound 3196] | 0 to 25%
O=C(Cc1ccc(C(F)(F)F)c(F)c1)Nc1c(Cl)ccc2c1CCN(C(=O)c1ccccc1F)C2 [Compound 3114] | 0 to 25%

Structure (SMILES) | inhibition at 0.3 µM
CC(=O)Nc1ccc(C(=O)N2CCc3c(ccc(Cl)c3NC(=O)Cc3ccc(C(F)(F)F)c(F)c3)C2)cc1 [Compound 3128] | 0 to 25%
O=C(Cc1ccc(C(F)(F)F)c(F)c1)Nc1cccc2c1CCN(C(=O)[C@H]1COc3ccccc3O1)C2 [Compound 3037] | ≥ 76%
Cc1ccc(C(=O)N2CCc3c(ccc(Cl)c3NC(=O)Cc3ccc(C(F)(F)F)c(F)c3)C2)cc1 [Compound 3119] | 26 to 50%
O=C(Cc1ccc(C(F)(F)F)c(F)c1)Nc1cccc2c1CCN(C(=O)[C@H]1CCCN1)C2 [Compound 3051] | ≥ 76%
CC(C)(C)c1ccc(C(=O)N2CCc3c(ccc(Cl)c3NC(=O)Cc3cccc(C(F)(F)F)c3F)C2)cc1 [Compound 3188] | ≥ 76%
CC(C)(C)c1ccc(C(=O)N2CCc3c(ccc(Cl)c3NC(=O)Cc3ccc(C(F)(F)F)c(F)c3)C2)cc1 [Compound 3124] | 0 to 25%
O=C(Cc1ccc(C(F)(F)F)c(F)c1)Nc1c(Cl)ccc2c1CCN(C(=O)Cc1ccc(Cl)cc1)C2 [Compound 3105] | 26 to 50%
Cc1cccc(C(=O)N2CCc3c(ccc(Cl)c3NC(=O)Cc3cccc(C(F)(F)F)c3F)C2)c1 [Compound 3140] | 0 to 25%
O=C(Cc1cccc(C(F)(F)F)c1F)Nc1c(Cl)ccc2c1CCN(C(=O)c1ccc3ccccc3n1)C2 [Compound 3189] | 0 to 25%
O=C(Cc1cccc(C(F)(F)F)c1F)Nc1c(Cl)ccc2c1CCN(C(=O)C1CCCCC1)C2 [Compound 3147] | 0 to 25%
Cc1ccccc1C(=O)N1CCc2c(ccc(Cl)c2NC(=O)Cc2ccc(C(F)(F)F)c(F)c2)C1 [Compound 3112] | 0 to 25%
O=C(Cc1ccc(C(F)(F)F)c(F)c1)Nc1cccc2c1CCN(CC(O)c1ccc(Cl)cc1)C2 (stereo not shown) [Compound 3066] | 51 to 75%
O=C(Cc1cccc(C(F)(F)F)c1F)Nc1c(Cl)ccc2c1CCN(C(=O)c1ccc(Cl)cc1Cl)C2 [Compound 3163] | 26 to 50%
O=C(Cc1cccc(C(F)(F)F)c1F)Nc1c(Cl)ccc2c1CCN(C(=O)c1ccc(Cl)c(Cl)c1)C2 [Compound 3148] | 0 to 25%
N#Cc1ccc(C(=O)N2CCc3c(ccc(Cl)c3NC(=O)Cc3ccc(C(F)(F)F)c(F)c3)C2)cc1 [Compound 3098] | 0 to 25%
O=C(Cc1ccc(C(F)(F)F)c(F)c1)Nc1cccc2c1CCN(C(=O)C1COc3ccccc3O1)C2 (stereo not shown) [Compound 3036] | 0 to 25%
CCCC(=O)N1CCc2c(ccc(Cl)c2NC(=O)Cc2cccc(C(F)(F)F)c2F)C1 [Compound 3187] | 0 to 25%
O=C(Cc1cccc(C(F)(F)F)c1F)Nc1c(Cl)ccc2c1CCN(C(=O)c1cc(Cl)cc(Cl)c1)C2 [Compound 3195] | 0 to 25%

Same assay, conditions: Homo sapiens; THP-1 cells, BzATP 250 uM, four parameter logistic fit

Structure (SMILES) | IC50
Cc1ccc2c(c1NC(=O)Cc1ccc(C(F)(F)F)c(F)c1)CCN(C(=O)C(C)C)C2 [Compound 3215] | 48.6 nM
COc1ccc2c(c1NC(=O)Cc1ccc(C(F)(F)F)c(F)c1)CCN(C(=O)C(C)(C)O)C2 [Compound 3481] | 926 nM
Cc1ccc2c(c1NC(=O)Cc1ccc(C(F)(F)F)c(F)c1)CCN(C(=O)C1(C)CC1)C2 [Compound 3471] | 261 nM
O=C(Cc1ccc(C(F)(F)F)c(F)c1)Nc1cccc2c1CCN(C(=O)[C@H]1COc3ccccc3O1)C2 [Compound 3037] | 145 nM
CCS(=O)(=O)N1CCc2c(ccc(Cl)c2NC(=O)Cc2ccc(C(F)(F)F)c(F)c2)C1 [Compound 3272] | 51.4 nM
O=C(Cc1ccc(C(F)(F)F)c(F)c1)Nc1cccc2c1CCN(C(=O)[C@H]1CCCN1)C2 [Compound 3051] | 73 nM
Cc1ccc2c(c1NC(=O)Cc1ccc(C(F)(F)F)c(F)c1)CCN(C(=O)[C@H]1CCN1)C2 [Compound 3480] | 74.9 nM
O=C(Cc1ccc(C(F)(F)F)c(F)c1)Nc1cccc2c1CCN(CC(O)c1ccc(Cl)cc1)C2 (stereo not shown) [Compound 3066] | 219 nM
O=C(Cc1ccc(C(F)(F)F)c(F)c1)Nc1cccc2c1CCN(C(=O)C1COc3ccccc3O1)C2 (stereo not shown) [Compound 3036] | > 1000 nM
Cc1ccc2c(c1NC(=O)Cc1ccc(C(F)(F)F)c(F)c1)CCN(C(=O)C1CC1)C2 [Compound 3469] | 52.5 nM
